The values that follow come from patent US5880160A (priority 1995, dated 1999).

For one experiment, the system named is MCF7-ADR (resistant). Briefly: cells. In kind it is cell-based, human. To be noted: for MCF7-ADR/MCF7: ratio of IC50 in MCF7-ADR to IC50 in MCF-7; for IC50: MCF7-ADR resistant cell line, in vitro.
Another experiment concerns MCF-7 (human breast). Briefly: cells. To be noted: MCF-7 human breast cell line, in vitro. In kind it is cell-based.

As to `COc1cc2c(c(OC)c1OC)-c1ccc(OC)c(=O)cc1[C@@H](NC(C)=O)CC2` [Colchicine, colchicine, reference compound], in the experiment with MCF7-ADR (resistant), the MCF7-ADR/MCF7 is listed as 25.45.
In general, IC50 refers to the midpoint of a concentration-inhibition curve. As for `COc1cc2c(c(OC)c1OC)-c1ccc(SC)c(=O)cc1[C@@H](NC(=O)C(F)(F)C(F)(F)F)CC2` [Compound I, N-deacetyl-N-pentafluoro-propionyl-thiocolchicine], the concentration for half-maximal inhibition (IC50) in the experiment with MCF-7 (human breast) (MCF7) amounted to 6.2 ± 0.4 nM; in the experiment with MCF7-ADR (resistant) (Homo sapiens, NCI/ADR-RES) it was 26 ± 2.3 nM. Also, in the experiment with MCF7-ADR (resistant), the MCF7-ADR/MCF7 amounted to 4.2.
For `CCCCCC/C=C/C#CCCCCCCCC(=O)Oc1cc2c(c(OC)c1OC)-c1ccc(SC)c(=O)cc1C(NC(=O)C(F)(F)C(F)(F)F)CC2` (stereo not shown) [Compound II, N-deacetyl-N-pentafluoropropionyl-3-O-ximenoyl-thiocolchicine], the IC50 in the experiment with MCF-7 (human breast) worked out at 5 ± 0.2 nM; with MCF7-ADR (resistant), 11 ± 1.9 nM. For the same compound, the MCF7-ADR/MCF7 in the experiment with MCF7-ADR (resistant) is recorded as 2.2.
Regarding `COc1c(OC2C=CCC2)cc2c(c1OC)-c1ccc(SC)c(=O)cc1[C@@H](NC(=O)C(F)(F)C(F)(F)F)CC2` (stereo partly shown) [Compound III, N-deacetyl-N-pentafluoropropionyl-3-O-demethyl-3-O-cyclopentenyl-thiocolchicine], the half-inhibitory concentration (IC50) with MCF-7 (human breast) (MCF7) was 4.1 ± 0.3 nM; in the experiment on MCF7-ADR (resistant) (Homo sapiens, NCI/ADR-RES) it was 7 ± 0.4 nM. Moreover, the MCF7-ADR/MCF7 with MCF7-ADR (resistant) amounted to 1.7.
Turning to `COc1cc2c(c(OC)c1OC)-c1ccc(SC)c(=O)cc1[C@@H](NC(=O)C(F)(F)C(F)(F)C(F)(F)F)CC2` [Compound IV, N-deacetyl-N-heptafluorobutyroyl-thiocolchicine], the IC50 worked out at 3.2 ± 0.2 nM in the experiment on MCF-7 (human breast) (MCF7) and 31 ± 1.9 nM in the experiment on MCF7-ADR (resistant) (Homo sapiens, NCI/ADR-RES). Further, in the experiment on MCF7-ADR (resistant), the MCF7-ADR/MCF7 came to 9.7.
Consider `CC(=O)O[C@H]1C(=O)[C@@]2(C)[C@H]([C@H](OC(=O)c3ccccc3)[C@]3(O)C[C@H](OC(=O)[C@H](O)[C@@H](NC(=O)c4ccccc4)c4ccccc4)C(C)=C1C3(C)C)[C@]1(OC(C)=O)CO[C@@H]1C[C@@H]2O` [Taxol, reference compound], for which the IC50 in the experiment on MCF-7 (human breast) (MCF7) came to 6.1 ± 0.3 nM; in the experiment on MCF7-ADR (resistant) (Homo sapiens, NCI/ADR-RES), 360 ± 7.8 nM. Also, the MCF7-ADR/MCF7 in the experiment on MCF7-ADR (resistant) is recorded as 59.01.
